Results: ChEMBL document CHEMBL4041510, “Design, synthesis, and biological evaluation of structurally modified isoindolinone and quinazolinone derivatives as hedgehog pathway inhibitors” (Eur J Med Chem, 2017)
Calls of active or inactive are those of the source. No cut-off for these calls is given here.

Assays:
[1] = Inhibition of hedgehog signaling pathway in mouse NIH/3T3 cells measured after 24 hrs by Gli-dual luciferase reporter gene assay; type: cell-based; conditions: NIH3T3, 24 h
[2] = test system: NIH3T3; assay: Cytotoxicity against mouse NIH/3T3 cells assessed as cell viability by MTS assay; type: cell-based
[3] = Metabolic stability in human liver microsomes assessed as compound remaining at 1 uM preincubated for 5 mins followed by UDPGA addition measured after 30 mins by LC-ESI/MS/MS analysis relative to control; type: ADME, microsome; conditions: read-out: Stability
[4] = Inhibition of hedgehog signaling pathway in mouse NIH/3T3 cells expressing wild type Smo assessed as reduction in Gli mRNA expression by RT-PCR method; type: cell-based; conditions: NIH3T3
[5] = Metabolic stability in human liver microsomes assessed as compound remaining at 1 uM in absence of UDPGA incubated for 5 mins by LC-ESI/MS/MS analysis relative to control; type: ADME, microsome; conditions: read-out: Stability
[6] = species on record: Mus musculus; assay: Inhibition of hedgehog signaling pathway in mouse NIH/3T3 cells assessed as inhibition of hedgehog-induced Smo-EGFP ciliary translocation by DAPI staining based confocal microscopic analysis; type: cell-based
[7] = Metabolic stability in human liver microsomes assessed as compound remaining at 1 uM preincubated for 5 mins followed by NADPH addition measured after 30 mins by LC-ESI/MS/MS analysis relative to control; type: ADME, microsome; conditions: read-out: Stability
[8] = Inhibition of hedgehog signaling pathway in mouse NIH/3T3 cells harboring Smo D477H mutant assessed as reduction in Gli mRNA expression by RT-PCR method; type: cell-based; conditions: NIH3T3
[9] = Metabolic stability in human liver microsomes assessed as compound remaining at 1 uM in absence of NADPH incubated for 5 mins by LC-ESI/MS/MS analysis relative to control; type: ADME, microsome; conditions: read-out: Stability
[10] = species on record: Mus musculus; assay: Selectivity ratio of IC50 for hedgehog signaling pathway in mouse NIH/3T3 cells harboring Smo D477H mutant to IC50 for hedgehog signaling pathway in mouse NIH/3T3 cells expressing wild type Smo; type: cell-based
[11] = species on record: Mus musculus; assay: Inhibition of hedgehog signaling pathway expressed in mouse NIH/3T3 cells assessed as inhibition of hedgehog-induced Gli-2 accumulation at tip of primary cilia by DAPI staining based confocal microscopic analysis; type: cell-based
[12] = species on record: Mus musculus; assay: Inhibition of hedgehog signaling pathway in Ptch deficient MEF assessed as downregulation of Gli-1 expression by Immunoblot analysis

Row | SMILES | IC50 [1] [nM] | Activity [2] [µM] | other results
1 | CC1CCN(c2cc(-n3cnc4c(-c5ccc(OC(F)(F)F)cc5)cccc4c3=O)ncn2)CC1 | 7700 | > 20 | –
2 | C[C@@H]1CN(c2ccc(-n3cnc4c(-c5ccc(OC(F)(F)F)cc5)cccc4c3=O)cn2)C[C@H](C)O1 | 159 | > 20 | –
3 | COc1cccc(-c2cccc3c(=O)n(-c4ccc(N5CCOCC5)cc4)cnc23)c1 | 433 | > 20 | –
4 | O=C1CC2(CCCC2)CC(=O)N1CCCCN1CCN(c2ncccn2)CC1 [BUSPIRONE] | – | – | remaining at 0.5 h, 1 µM [7]: 5.17%; remaining at 5 min, 1 µM [9]: 96.7%
5 | C[C@@H]1CN(c2ccc(N3Cc4c(cccc4-c4ccc(OC(F)(F)F)cc4)C3=O)cn2)C[C@H](C)O1 | 1800 | > 20 | –
6 | O=c1c2cccc(Cl)c2ncn1-c1ccc(N2CCOCC2)cc1 | > 20000 | > 20 | –
7 | C[C@@H]1CN(c2cc(-n3cnc4c(-c5ccc(OC(F)(F)F)cc5)cccc4c3=O)ncn2)C[C@H](C)O1 | 44200 | > 20 | –
8 | O=c1c2cccc(Cl)c2ncn1-c1ccc(N2CCOCC2)nc1 | 15300 | > 20 | –
9 | Cc1cc(=O)oc2cc(O)ccc12 [HYMECROMONE] | – | – | remaining at 0.5 h, 1 µM [3]: 0.46%; remaining at 5 min, 1 µM [5]: 92.2%
10 | C[C@@H]1CN(c2ccc(-n3cnc4c(-c5ccc(OC(F)(F)F)cc5)cccc4c3=O)nc2)C[C@H](C)O1 | 196 | > 20 | –
11 | COc1ccc(-c2cccc3c(=O)n(-c4ccc(N5C[C@@H](C)O[C@@H](C)C5)nc4)cnc23)cc1 | 196 | > 20 | –
12 | O=c1c2cccc(-c3ccccc3)c2ncn1-c1ccc(N2CCOCC2)cc1 | 132 | > 20 | –
13 | O=c1c2cccc(-c3ccc(OC(F)(F)F)cc3)c2ncn1-c1ccc(N2CCOCC2)nc1 | 5410 | > 20 | –

Second part, led by results:

Row | IC50 [1] [nM] | SMILES | Activity [2] [µM] | other results
14 | 269 | O=c1c2cccc(Cl)c2ncn1-c1ccc(F)cc1 | > 20 | –
15 | 1140 | C[C@@H]1CN(c2cc(N3Cc4c(cccc4-c4ccc(OC(F)(F)F)cc4)C3=O)ncn2)C[C@H](C)O1 | > 20 | –
16 | 6 | Cc1c(C(=O)Nc2ccc(N3C[C@@H](C)O[C@@H](C)C3)nc2)cccc1-c1ccc(OC(F)(F)F)cc1 [SONIDEGIB] | > 20 | remaining at 0.5 h, 1 µM [3]: 88.4%; IC50 [4]: 4.4 nM; remaining at 5 min, 1 µM [5]: 89.5%; inhibition [6]: Active; remaining at 0.5 h, 1 µM [7]: 68%; IC50 [8]: 22.7 nM; remaining at 5 min, 1 µM [9]: 99.7%; Ratio IC50 [10]: 5.16; inhibition [11]: Active
17 | 5 | CS(=O)(=O)c1ccc(C(=O)Nc2ccc(Cl)c(-c3ccccn3)c2)c(Cl)c1 [VISMODEGIB] | – | IC50 [4]: 14.4 nM; inhibition [6]: Active; IC50 [8]: 1200 nM; Ratio IC50 [10]: 82.7; inhibition [11]: Active
18 | 6600 | O=c1c2cccc(-c3ccc(OC(F)(F)F)cc3)c2ncn1CCN1CCOCC1 | > 20 | –
19 | 7490 | C[C@@H]1CN(c2ccc(-n3cnc4c(Cl)cccc4c3=O)cn2)C[C@H](C)O1 | > 20 | –
20 | 118 | C[C@@H]1CN(c2ccc(-n3cnc4c(-c5ccc(F)cc5)cccc4c3=O)cn2)C[C@H](C)O1 | > 20 | inhibition [12]: Active; remaining at 0.5 h, 1 µM [3]: 83.5%; IC50 [4]: 114 nM; remaining at 5 min, 1 µM [5]: 83.2%; inhibition [6]: Active; remaining at 0.5 h, 1 µM [7]: 76.3%; IC50 [8]: 246 nM; remaining at 5 min, 1 µM [9]: 91.3%; Ratio IC50 [10]: 2.16; inhibition [11]: Active
21 | 1710 | C[C@@H]1CN(c2ccc(N3Cc4c(cccc4-c4ccc(F)cc4F)C3=O)cn2)C[C@H](C)O1 | > 20 | –
22 | 1240 | C[C@@H]1CN(c2cc(-n3cnc4c(Cl)cccc4c3=O)ncn2)C[C@H](C)O1 | > 20 | –
23 | 430 | C[C@@H]1CN(c2ccc(-n3cnc4c(-c5ccc(S(C)(=O)=O)cc5)cccc4c3=O)cn2)C[C@H](C)O1 | > 20 | –
24 | 4520 | O=c1c2cccc(-c3ccc(OC(F)(F)F)cc3)c2ncn1-c1ccc(N2CCOCC2)cc1 | > 20 | –
25 | 439 | C[C@@H]1CN(c2ccc(-n3cnc4c(-c5cccc6ccccc56)cccc4c3=O)cn2)C[C@H](C)O1 | > 20 | –
26 | 5280 | O=c1c2cccc(-c3ccc(OC(F)(F)F)cc3)c2ncn1CCCn1ccnc1 | > 20 | –
27 | 305 | Cc1ccc(-c2cccc3c(=O)n(-c4ccc(N5C[C@@H](C)O[C@@H](C)C5)nc4)cnc23)cc1 | > 20 | –
28 | 7690 | C[C@@H]1CN(c2ccc(N3Cc4c(cccc4-c4cccnc4)C3=O)cn2)C[C@H](C)O1 | > 20 | –
29 | 38 | C[C@@H]1CN(c2ccc(-n3cnc4c(-c5ccccc5)cccc4c3=O)cn2)C[C@H](C)O1 | > 20 | inhibition [12]: Active; remaining at 0.5 h, 1 µM [3]: 91%; IC50 [4]: 257 nM; remaining at 5 min, 1 µM [5]: 93.1%; inhibition [6]: Active; remaining at 0.5 h, 1 µM [7]: 68.2%; IC50 [8]: 91.1 nM; remaining at 5 min, 1 µM [9]: 83.7%; Ratio IC50 [10]: 0.355; inhibition [11]: Active
30 | 847 | CC1CCN(c2ccc(-n3cnc4c(-c5ccc(OC(F)(F)F)cc5)cccc4c3=O)cn2)CC1 | > 20 | –
